Reference: ChEMBL document CHEMBL1152569, “Synthesis, structure-affinity relationships, and modeling of AMDA analogs at 5-HT2A and H1 receptors: structural factors contributing to selectivity” (Bioorg Med Chem, 2009)

Columns and labels:
Histamine H1 receptor = Histamine H1 receptor (Homo sapiens, UniProt P35367); test: Displacement of [3H]chlorphniramine from human histamine H1 receptor expressed in cells; type: cell-based
[1] = molecular target: 5-hydroxytryptamine receptor 2A (Homo sapiens, UniProt P28223); test: Displacement of [3H]ketanserin from human 5HT2A receptor expressed in cells; type: cell-based
Chain of 5-hydroxytryptamine receptor 2A (P28223 whole entry): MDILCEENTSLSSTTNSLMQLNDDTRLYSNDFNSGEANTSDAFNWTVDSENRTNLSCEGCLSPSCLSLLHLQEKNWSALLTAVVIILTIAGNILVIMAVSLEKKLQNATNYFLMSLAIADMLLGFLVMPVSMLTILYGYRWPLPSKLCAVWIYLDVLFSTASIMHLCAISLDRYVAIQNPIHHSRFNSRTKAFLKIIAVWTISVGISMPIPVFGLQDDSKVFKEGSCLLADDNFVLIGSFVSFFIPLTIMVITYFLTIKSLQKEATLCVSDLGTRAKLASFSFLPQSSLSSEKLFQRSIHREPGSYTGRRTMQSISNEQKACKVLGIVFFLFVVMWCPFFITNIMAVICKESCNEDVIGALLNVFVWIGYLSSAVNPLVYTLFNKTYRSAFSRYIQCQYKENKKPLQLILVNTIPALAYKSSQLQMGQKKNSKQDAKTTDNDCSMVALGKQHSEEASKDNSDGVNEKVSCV

Chain of Histamine H1 receptor (P35367 whole entry): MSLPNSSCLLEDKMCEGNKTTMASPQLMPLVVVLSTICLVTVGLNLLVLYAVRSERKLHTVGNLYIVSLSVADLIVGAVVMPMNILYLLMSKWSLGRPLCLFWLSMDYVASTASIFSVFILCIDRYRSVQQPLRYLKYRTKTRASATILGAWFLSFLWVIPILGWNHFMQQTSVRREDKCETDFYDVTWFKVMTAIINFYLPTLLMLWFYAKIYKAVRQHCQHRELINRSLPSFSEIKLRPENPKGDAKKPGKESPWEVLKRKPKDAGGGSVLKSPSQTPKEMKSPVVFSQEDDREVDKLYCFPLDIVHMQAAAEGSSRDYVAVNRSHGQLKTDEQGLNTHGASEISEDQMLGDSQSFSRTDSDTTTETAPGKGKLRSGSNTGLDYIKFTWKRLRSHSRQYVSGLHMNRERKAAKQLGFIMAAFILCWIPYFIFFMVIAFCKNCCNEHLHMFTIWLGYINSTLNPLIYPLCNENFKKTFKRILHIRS

Ki (Histamine H1 receptor) [nM] | SMILES | Ki [1] [nM]
2760 | NCCC(c1ccccc1)c1ccccc1 | > 10000
> 10000 | CNCC(c1ccccc1)c1ccccc1 | > 10000
> 10000 | NCC(c1ccccc1)c1ccccc1 | –
137 | NCCC1c2ccccc2Cc2ccccc21 | –
0.5 | CN(C)CCCC1c2ccccc2Cc2ccccc21 | –
25 | CN(C)CC1c2ccccc2Cc2ccccc21 | –
189 | CNCC1c2ccccc2Cc2ccccc21 | –
386 | CNCCCC(c1ccccc1)c1ccccc1 | 754
1670 | NCCCC(c1ccccc1)c1ccccc1 | 2590
3 | CNCCCC1c2ccccc2Cc2ccccc21 | –

SMILES | Ki (Histamine H1 receptor) [nM] | Ki [1] [nM]
CN(C)CC(c1ccccc1)c1ccccc1 | 5170 | 7360
CN(C)CCC(c1ccccc1)c1ccccc1 | 75 | 1640
CN(C)CCCC(c1ccccc1)c1ccccc1 | 70 | 1150
NCC1c2ccccc2Cc2ccccc21 | 197 | –
NCCCC1c2ccccc2Cc2ccccc21 | 175 | –
CNCCC(c1ccccc1)c1ccccc1 | 64 | 1500
CN(C)CCC1c2ccccc2Cc2ccccc21 | 6 | 84
CNCCC1c2ccccc2Cc2ccccc21 | 48 | 92
